Columns and labels:
[1] = test system: Elatine triandra; assay: Pre-emergence herbicidal activity against Elatine triandra assessed as phytotoxic weed control visual ratings at 1.25 kg ai/ha measured after 14 days post treatment under flooded conditions; assay type: functional
[2] = test system: Rotala indica; assay: Pre-emergence herbicidal activity against Rotala indica assessed as phytotoxic weed control visual ratings at 1.25 kg ai/ha measured after 14 days post treatment under flooded conditions; assay type: functional
[3] = test system: Cyperus difformis; assay: Pre-emergence herbicidal activity against Cyperus difformis assessed as phytotoxic weed control visual ratings at 1.25 kg ai/ha measured after 14 days post treatment under flooded conditions; assay type: functional
[4] = test system: Echinochloa oryzicola; assay: Pre-emergence herbicidal activity against Echinochloa oryzicola assessed as phytotoxic weed control visual ratings at 1.25 kg ai/ha measured after 14 days post treatment under flooded conditions; assay type: functional
[5] = test system: Oryza sativa; assay: Pre-emergence phytotoxicity against Oryza sativa cv. Koshihikari (rice) assessed as phytotoxic crop injury visual ratings at 1.25 kg ai/ha measured after 14 days post treatment under flooded conditions; assay type: organism-based; settings: in vivo, other, 336 h
[6] = test system: Schoenoplectiella juncoides; assay: Pre-emergence herbicidal activity against Schoenoplectiella juncoides assessed as phytotoxic weed control visual ratings at 1.25 kg ai/ha measured after 14 days post treatment under flooded conditions; assay type: functional
[7] = test system: Pontederia vaginalis; assay: Pre-emergence herbicidal activity against Monochoria vaginalis assessed as phytotoxic weed control visual ratings at 1.25 kg ai/ha measured after 14 days post treatment under flooded conditions; assay type: functional
[8] = test system: Lindernia procumbens; assay: Pre-emergence herbicidal activity against Lindernia procumbens assessed as phytotoxic weed control visual ratings at 1.25 kg ai/ha measured after 14 days post treatment under flooded conditions; assay type: functional
[9] = test system: Zea mays; assay: Pre-emergence phytotoxicity against Zea mays (maize) assessed as phytotoxic crop injury visual ratings at 500 g ai/ha measured after 14 days post treatment under upland field conditions; assay type: organism-based; settings: in vivo, other, 336 h
[10] = test system: Chenopodium album; assay: Pre-emergence herbicidal activity against Chenopodium album assessed as phytotoxic weed control visual ratings at 500 g ai/ha measured after 14 days post treatment under upland field conditions; assay type: functional
[11] = test system: Amaranthus viridis; assay: Pre-emergence herbicidal activity against Amaranthus viridis assessed as phytotoxic weed control visual ratings at 500 g ai/ha measured after 14 days post treatment under upland field conditions; assay type: functional
[12] = test system: Digitaria ciliaris; assay: Pre-emergence herbicidal activity against Digitaria ciliaris assessed as phytotoxic weed control visual ratings at 500 g ai/ha measured after 14 days post treatment under upland field conditions; assay type: functional
[13] = test system: Echinochloa crus-galli; assay: Pre-emergence herbicidal activity against Echinochloa crus-galli (barnyard grass) assessed as phytotoxic weed control visual ratings at 500 g ai/ha measured after 14 days post treatment under upland field conditions; assay type: functional
[14] = test system: Schoenoplectiella juncoides; assay: Pre-emergence herbicidal activity against Schoenoplectiella juncoides assessed as phytotoxic weed control visual ratings at 25 g ai/ha measured after 14 days post treatment under flooded conditions; assay type: functional
[15] = test system: Oryza sativa; assay: Pre-emergence phytotoxicity against Oryza sativa cv. Koshihikari (rice) assessed as phytotoxic crop injury visual ratings at 25 g ai/ha measured after 14 days post treatment under flooded conditions; assay type: organism-based; settings: in vivo, other, 336 h
[16] = test system: Pontederia vaginalis; assay: Pre-emergence herbicidal activity against Monochoria vaginalis assessed as phytotoxic weed control visual ratings at 25 g ai/ha measured after 14 days post treatment under flooded conditions; assay type: functional
[17] = test system: Lindernia procumbens; assay: Pre-emergence herbicidal activity against Lindernia procumbens assessed as phytotoxic weed control visual ratings at 25 g ai/ha measured after 14 days post treatment under flooded conditions; assay type: functional
[18] = test system: Cyperus difformis; assay: Pre-emergence herbicidal activity against Cyperus difformis assessed as phytotoxic weed control visual ratings at 25 g ai/ha measured after 14 days post treatment under flooded conditions; assay type: functional
[19] = test system: Echinochloa oryzicola; assay: Pre-emergence herbicidal activity against Echinochloa oryzicola assessed as phytotoxic weed control visual ratings at 25 g ai/ha measured after 14 days post treatment under flooded conditions; assay type: functional
[20] = test system: Rotala indica; assay: Pre-emergence herbicidal activity against Rotala indica assessed as phytotoxic weed control visual ratings at 25 g ai/ha measured after 14 days post treatment under flooded conditions; assay type: functional
[21] = test system: Elatine triandra; assay: Pre-emergence herbicidal activity against Elatine triandra assessed as phytotoxic weed control visual ratings at 25 g ai/ha measured after 14 days post treatment under flooded conditions; assay type: functional
[22] = test system: Elatine triandra; assay: Pre-emergence herbicidal activity against Elatine triandra assessed as phytotoxic weed control visual ratings at 2.5 kg ai/ha measured after 14 days post treatment under flooded conditions; assay type: functional
[23] = test system: Rotala indica; assay: Pre-emergence herbicidal activity against Rotala indica assessed as phytotoxic weed control visual ratings at 2.5 kg ai/ha measured after 14 days post treatment under flooded conditions; assay type: functional
[24] = test system: Schoenoplectiella juncoides; assay: Pre-emergence herbicidal activity against Schoenoplectiella juncoides assessed as phytotoxic weed control visual ratings at 2.5 kg ai/ha measured after 14 days post treatment under flooded conditions; assay type: functional
[25] = test system: Pontederia vaginalis; assay: Pre-emergence herbicidal activity against Monochoria vaginalis assessed as phytotoxic weed control visual ratings at 2.5 kg ai/ha measured after 14 days post treatment under flooded conditions; assay type: functional
[26] = test system: Oryza sativa; assay: Pre-emergence phytotoxicity against Oryza sativa cv. Koshihikari (rice) assessed as phytotoxic crop injury visual ratings at 2.5 kg ai/ha measured after 14 days post treatment under flooded conditions; assay type: organism-based; settings: in vivo, other, 336 h
[27] = test system: Lindernia procumbens; assay: Pre-emergence herbicidal activity against Lindernia procumbens assessed as phytotoxic weed control visual ratings at 2.5 kg ai/ha measured after 14 days post treatment under flooded conditions; assay type: functional
[28] = test system: Cyperus difformis; assay: Pre-emergence herbicidal activity against Cyperus difformis assessed as phytotoxic weed control visual ratings at 2.5 kg ai/ha measured after 14 days post treatment under flooded conditions; assay type: functional
[29] = test system: Echinochloa oryzicola; assay: Pre-emergence herbicidal activity against Echinochloa oryzicola assessed as phytotoxic weed control visual ratings at 2.5 kg ai/ha measured after 14 days post treatment under flooded conditions; assay type: functional
[30] = Selectivity index, ratio of ED10 for Oryza sativa to ED90 for Echinochloa oryzicola by pre-emergence exposure method
[31] = Selectivity index, ratio of ED10 for Oryza sativa to ED90 for Echinochloa oryzicola by post-emergence exposure method
[32] = test system: Oryza sativa; assay: Pre-emergence phytotoxicity against Oryza sativa cv. Koshihikari (rice) assessed as phytotoxic crop injury visual ratings measured after 14 days post treatment; assay type: organism-based; settings: in vivo, 336 h
[33] = test system: Oryza sativa; assay: Post-emergence phytotoxicity against Oryza sativa cv. Koshihikari (rice) assessed as phytotoxic crop injury visual ratings measured after 14 days post treatment; assay type: organism-based; settings: in vivo, 336 h

SMILES	Phytotoxicity [1]	Phytotoxicity [2]	Phytotoxicity [3]	Phytotoxicity [4]	Phytotoxicity [5]	Phytotoxicity [6]	Phytotoxicity [7]	Phytotoxicity [8]	Phytotoxicity [9]	Phytotoxicity [15]	Phytotoxicity [22]	Phytotoxicity [23]	Phytotoxicity [24]	Phytotoxicity [25]	Phytotoxicity [26]	Phytotoxicity [27]	Phytotoxicity [28]	Phytotoxicity [29]	also measured
CCC(CC)=C1OC(=O)N(c2ccc(Cl)cc2)C1=O	100%	100%	100%	10%	0%	30%	90%	100%	–	–	–	–	–	–	–	–	–	–	–
CCCCCCOc1cc(N2C(=O)OC(=C(C)C)C2=O)c(F)cc1Cl	–	–	–	–	–	–	–	–	0%	0%	–	–	–	–	–	–	–	–	Phytotoxicity [10]: 50%; Phytotoxicity [11]: 100%; Phytotoxicity [12]: 10%; Phytotoxicity [13]: 10%; Phytotoxicity [14]: 60%; Phytotoxicity [16]: 90%; Phytotoxicity [17]: 70%; Phytotoxicity [18]: 80%; Phytotoxicity [19]: 10%; Phytotoxicity [20]: 70%; Phytotoxicity [21]: 70%
CC(C)=C1OC(=O)N(c2cc(Cl)cc(Cl)c2)C1=O	–	–	–	–	–	–	–	–	–	–	50%	50%	30%	50%	0%	50%	30%	0%	–
C=CC1(C)OC(=O)N(c2cc(Cl)cc(Cl)c2)C1=O (stereo not drawn) [VINCLOZOLIN]	–	–	–	–	–	–	–	–	–	–	50%	50%	30%	50%	0%	50%	50%	90%	–
CC(C)=C1OC(=O)N(c2ccccc2Cl)C1=O	–	–	–	–	–	–	–	–	–	–	0%	0%	0%	0%	0%	0%	0%	0%	–
CC/C(C)=C1/OC(=O)N(c2ccc(F)cc2)C1=O	100%	100%	100%	10%	0%	60%	100%	100%	–	–	–	–	–	–	–	–	–	–	–
CCCCCC/C(C)=C1/OC(=O)N(c2ccc(Cl)cc2)C1=O	4%	4%	80%	10%	0%	10%	50%	4%	–	–	–	–	–	–	–	–	–	–	–
C=C(C)C1(C)OC(=O)N(c2cc(Cl)cc(Cl)c2)C1=O (stereo not drawn)	–	–	–	–	–	–	–	–	–	–	60%	60%	20%	30%	0%	60%	30%	80%	–
C#CC(C)Oc1cc(N2C(=O)OC(=C(C)C)C2=O)c(F)cc1Cl (stereo not drawn)	–	–	–	–	–	–	–	–	10%	20%	–	–	–	–	–	–	–	–	Selectivity Index [30]: 4; Selectivity Index [31]: 2; ED10 [32]: 6.25 gAi/ha; ED10 [33]: 12.5 gAi/ha
CCC(C)Oc1cc(N2C(=O)OC(=C(C)C)C2=O)c(F)cc1Cl (stereo not drawn)	–	–	–	–	–	–	–	–	0%	10%	–	–	–	–	–	–	–	–	Phytotoxicity [10]: 10%; Phytotoxicity [11]: 90%; Phytotoxicity [12]: 80%; Phytotoxicity [13]: 20%; Phytotoxicity [14]: 100%; Phytotoxicity [16]: 100%; Phytotoxicity [17]: 100%; Phytotoxicity [18]: 100%; Phytotoxicity [19]: 80%; Phytotoxicity [20]: 100%; Phytotoxicity [21]: 100%

Source: ChEMBL document CHEMBL3046126, “Synthesis and Herbicidal Activity of New Oxazolidinedione Derivatives” (J Pestic Sci, 1999)
